{"source": "paper PMC12769565", "about": "“Design, synthesis and biological activity of glycoconjugated ADAMTS5 exosite inhibitors: applications in osteoarthritis and ovarian cancer models” (Scientific Reports, 2025)", "key": {"[1]": {"molecular_target": "T1, ADAMTS4 (Homo sapiens, UniProt O75173)", "T1 construct": "Human recombinant full-length FLAG-tagged ADAMTS4 and ADAMTS5 were expressed in HEK293T cells; FLAG; made in house; host or cells: HEK293T cells", "T1 sequence (O75173 213-837)": "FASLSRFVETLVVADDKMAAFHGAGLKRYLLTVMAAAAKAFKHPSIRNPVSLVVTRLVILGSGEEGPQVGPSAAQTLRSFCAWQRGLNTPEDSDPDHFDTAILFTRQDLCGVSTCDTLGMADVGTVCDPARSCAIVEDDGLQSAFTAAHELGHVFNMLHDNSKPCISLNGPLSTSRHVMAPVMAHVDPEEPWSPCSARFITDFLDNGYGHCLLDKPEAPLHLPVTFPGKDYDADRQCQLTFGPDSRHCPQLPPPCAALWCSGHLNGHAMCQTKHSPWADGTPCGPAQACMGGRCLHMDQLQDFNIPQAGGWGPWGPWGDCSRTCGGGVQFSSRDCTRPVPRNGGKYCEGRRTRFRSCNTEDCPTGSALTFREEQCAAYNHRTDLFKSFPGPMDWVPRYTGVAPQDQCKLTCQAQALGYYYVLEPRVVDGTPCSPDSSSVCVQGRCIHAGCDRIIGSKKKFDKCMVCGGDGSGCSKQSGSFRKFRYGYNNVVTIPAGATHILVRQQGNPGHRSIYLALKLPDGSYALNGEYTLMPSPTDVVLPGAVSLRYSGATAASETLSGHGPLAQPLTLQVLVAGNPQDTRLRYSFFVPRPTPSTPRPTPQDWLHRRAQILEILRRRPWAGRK", "assay": "Versicanase assay (V1-5GAG, versikine sandwich ELISA)", "type": "biochemical", "details": "100 µM; compared to DMSO control", "procedure": "(§1) Human recombinant full-length FLAG-tagged ADAMTS4 and ADAMTS5 were expressed in HEK293T cells (Thermo Fisher Scientific) and purified by anti-FLAG immunoaffinity chromatography as before. Concentrations of active proteases were determined by active-site titrations with known concentrations of TIMP-3 (Bio-Techne, 973-TM-010), using QF peptides as substrates. V1-5GAG, a truncated version of versican V1 isoform comprising residues 21–694 and containing a C-terminal 6x His tag[67], was expressed in HE293T cells and purified by immobilized metal affinity chromatography as before.\n(§2) Compounds 1–4 (100 µM) or DMSO were incubated with ADAMTS4 (5 nM) or ADAMTS5 (0.4 nM) for 2 h at 37 °C, before addition of V1-5GAG (50 nM). At each time point, reactions were stopped by addition of ethylenediaminetetraacetic acid and ADAMTS-generated versican fragments (versikine) quantified by sandwich ELISA as before[29],[30],[38] using anti-DPEAAE neoepitope antibody (Life Technologies, PA1-1748 A, 5 µg/ml) and polyclonal anti-versican antibody (Abcam, ab171887, 3 µg/ml). For each reaction, the amount of versikine generated was derived from a standard curve (0–1.56 nM) of V1-5GAG completely digested with ADAMTS5. Initial velocities were calculated from the concentration of versikine generated as a function of reaction time. Percent of inhibition was calculated from the DMSO control reactions. IC50 values were determined using the formula: vi/v0 = 1/(1 + [I]/IC50) where vi is the initial velocity of substrate cleavage in the presence of the inhibitor at concentration [I] and v0 is the initial velocity in the presence of an equal concentration (v/v) of DMSO."}, "[2]": {"molecular_target": "T2, ADAMTS5 (Homo sapiens, UniProt Q9UNA0)", "T2 construct": "Human recombinant full-length FLAG-tagged ADAMTS4 and ADAMTS5 were expressed in HEK293T cells; FLAG; made in house; host or cells: HEK293T cells", "T2 sequence (Q9UNA0 262-930)": "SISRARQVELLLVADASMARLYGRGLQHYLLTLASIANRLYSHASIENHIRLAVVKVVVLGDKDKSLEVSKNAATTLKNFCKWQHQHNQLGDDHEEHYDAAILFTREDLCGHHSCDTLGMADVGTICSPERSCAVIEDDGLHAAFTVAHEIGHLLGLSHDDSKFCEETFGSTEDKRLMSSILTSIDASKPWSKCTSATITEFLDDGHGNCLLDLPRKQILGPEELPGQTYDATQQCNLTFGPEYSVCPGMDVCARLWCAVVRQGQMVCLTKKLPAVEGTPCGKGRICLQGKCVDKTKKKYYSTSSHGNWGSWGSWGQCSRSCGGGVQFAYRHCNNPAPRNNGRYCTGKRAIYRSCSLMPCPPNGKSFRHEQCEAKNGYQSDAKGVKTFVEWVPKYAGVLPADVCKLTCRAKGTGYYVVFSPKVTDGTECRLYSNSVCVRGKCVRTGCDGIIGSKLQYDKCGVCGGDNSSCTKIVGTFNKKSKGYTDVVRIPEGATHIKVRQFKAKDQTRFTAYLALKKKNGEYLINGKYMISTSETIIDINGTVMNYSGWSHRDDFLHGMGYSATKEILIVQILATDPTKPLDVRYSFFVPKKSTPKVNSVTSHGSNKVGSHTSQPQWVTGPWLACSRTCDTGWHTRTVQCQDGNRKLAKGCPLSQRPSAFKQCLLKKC", "assay": "Versicanase assay (V1-5GAG, versikine sandwich ELISA)", "type": "biochemical", "procedure": "as §1, §2"}, "[3]": {"system": "A2780-Rab25", "assay": "OC cell proliferation (DRAQ5 cell numbers)", "type": "cell-based", "details": "24 h", "procedure": "A2780-Rab25 (3,000 cells per well) were seeded in a 96-well plate and incubated with compound 2 (10 µM and 50 µM) or DMSO control for 24 h. Cells were fixed with 4% paraformaldehyde and stained with 5 µM DRAQ5 in PBS for 1 h at room temperature with gentle rocking. Cells were washed twice with PBS for 30 min and kept in PBS for imaging. […] was detected by the 700 nm channel (200 μm resolution) of a Licor Odyssey Sa instrument. The signal intensity (total intensity minus total background) of each well was quantified in Image Studio Lite software."}}}
{"molecule": "CCC(C)N(Cc1cn(CCCO[C@@H]2O[C@H](CO)[C@@H](O[C@@H]3O[C@H](CO)[C@H](O)[C@H](O)[C@H]3O)[C@H](O)[C@H]2NC(C)=O)nn1)S(=O)(=O)c1ccc(-c2ccccc2)cc1", "note": "(stereo partly drawn) [compound 2, N-((2R,3R,4R,5 S,6R)-2-(3-(4-((N-(sec-butyl)-[1,1’-biphenyl]-4-sulfonamido)methyl)-1H-1,2,3-triazol-1-yl)propoxy)-4-hydroxy-6-(hydroxymethyl)-5-(((2 S,3R,4 S,5R,6R)-3,4,5-trihydroxy-6-(hydroxymethyl)tetrahydro-2 H-pyran-2-yl)oxy)tetrahydro-2 H-pyran-3-yl)acetamide]", "values": [{"measurement": "inhibition of ADAMTS4 versicanase activity", "setting": "[1]", "result": "sparing ADAMTS4"}, {"measurement": "inhibition at 100 µM", "setting": "[2]; 100 µM, compared to DMSO control", "result": 76, "unit": "%"}, {"measurement": "IC50 of compound 2 relative to parent compound 4b (higher)", "setting": "[2]; ADAMTS5 versicanase activity", "result": "~ 4 fold"}, {"measurement": "IC50", "setting": "[2]; read-out: IC50 for inhibition of ADAMTS5 versicanase activity", "result": "35 ± 4.8", "unit": "µM"}, {"measurement": "A2780-Rab25 cell numbers compared to DMSO control", "setting": "[3]; 10 µM", "result": "did not detect any significant difference"}, {"measurement": "A2780-Rab25 cell numbers compared to DMSO control", "setting": "[3]; 50 µM", "result": "did not detect any significant difference"}]}
